Laboratory results reported in patent US20230190887A1, “TARGETING G3BP AGGREGATION TO PREVENT NEURODEGENERATION” (priority 2019, published 2023).
Entries after “also recorded” stand apart in the source; their conditions may differ.

Tests used:
[1] = system: G3BP1 aggregates in midbrain neurons; assay: Endogenous G3BP1 aggregates in MPP+-treated midbrain neurons; assay type: cell-based, rat; conditions: MPP+ plus peptide
Source text: Given that the G3BP1 190-208 peptide prevents degeneration induced by treatment with neurotoxins such as MPP+ and Aβ oligomer and decreases G3BP1 aggregates formed due MPP+ and Aβ treatment.
(A) Size of endogenous G3BP1 aggregates per 100 μm of neurite is shown as indicated bins from midbrain cultures under control conditions and after treatment with MPP+alone or with 190-208 G3BP1 or 168-189 peptides. (B) Size distribution of endogenous G3BP1 aggregates per 100 μm of neurite is shown from cortical neurons treated with 1 μM Aβpeptide or with […] 190-208 G3BP1 or 168-189 control peptide. Non-treated neurons were used as a control. […] (N≥90 over 3 cultures; by two-way ANOVA with Tukey HSD post-hoc).

[2] = system: axons of E18 cortical neurons; assay: Aβ oligomer-mediated axon degeneration in microfluidic cultures; assay type: cell-based; conditions: axons only exposed: Aβ oligomer 1 μM for 16 hours ± 190-208 G3BP1 peptide 1 μM
Method: To test whether the cell permeable G3BP1 190-208 peptide protects against this early axonal degeneration, the current disclosure exposed only the axons of E18 cortical neuron cultures to Aβ peptide using microfluidic cultures (FIG. 16A). […] Thus, the cell permeable G3BP1 190-208 peptide protects axons from the neurotoxic effects of Aβ oligomers through axon intrinsic mechanisms.
E18 cortical neurons were plated into the cell-body compartment (blue); after 7 DIV axons from these neurons extend through the microchannels into the axon compartment (pink). […] Yellow line indicates the exit of the axons from the microchannels.

[3] = system: G3BP1 and pTDP-43 particles in C9ORF72 iPS-MN axons; assay: G3BP1/pTDP-43 RNP condensates in iPS-MN axons; assay type: cell-based, human; conditions: peptide exclusively in the axonal compartment of the MFC
Source text: Formation of G3BP1-positive RNP condensates is strongly associated with repressed RNA translation, see Sahoo, P. K. et al. A Ca^2+ dependent switch activates axonal casein kinase 2α translation and drives G3BP1 granule disassembly for axon regeneration. Curr. Biol. 30, 4882-4895.e6 (2020), and altered mRNA transport, see Liao, Y. C. et al. RNA granules hitchhike on lysosomes for long-distance transport, using Annexin All as a molecular tether. Cell 179, 147-164.e20 (2019), leading to reduced protein synthesis, see Sahoo, P. K. et al. Axonal G3BP1 stress granule protein limits axonal mRNA translation and nerve regeneration. Nat. Commun. 9, 1-14 (2018). […] By quantifying OPP puncta density within in vitro NMJs, we identified robust protein synthesis within control co-cultures, while protein synthesis in TDPΔNLS NMJs was severely impaired (FIG. 19 3k-l). […] Unpaired-t-test, two-sided ****p<0.0001. c Images and d-f quantification of NFH, pTDP-43 and G3BP1 and their colocalization in C9ORF72 iPS-MN axons either treated or not with G3BP1 peptide. Quantifications of G3BP1 particle density (d), G3BP1-pTDP-43 coloc-particle density (e) and G3BP1-pTDP-43 coloc-particle size (f) from C9ORF72 and control iPS-MN axons, either treated or not with G3BP1 peptide. […] One-way-ANOVA with Holm-Sidak correction. […], ****p<0.0001. i Images and j quantification of OPP puncta density in control or ΔNLS MN axons. […]

With “YGNKKNNNQNNN-VVEPEPEPEPEPEPEPVSE [G3BP1 190-208 peptide]” the “size of endogenous G3BP1 aggregates per 100 μm of neurite” value [1] was “decrease in the size of G3BP1 aggregates”, the “size of endogenous G3BP1 aggregates per 100 μm of neurite” value ([1]; listed as 190-208 G3BP1 peptide) was “disassembly of G3BP1 granules” and the axon degeneration [2] was “near completely prevented this axon degeneration; also recorded: rescues amyloid beta oligomer-mediated axonal degeneration”. The G3BP1/pTDP43 particle size [3] was “Reduce G3BP1/pTDP43 particle size” and the “pTDP43 RNP-condensate density” value [3] was “Reduce”.
